Target: T1, mouse OR-I7 (Mus musculus, UniProt Q9QWU6)
T1 sequence (Q9QWU6 1-327): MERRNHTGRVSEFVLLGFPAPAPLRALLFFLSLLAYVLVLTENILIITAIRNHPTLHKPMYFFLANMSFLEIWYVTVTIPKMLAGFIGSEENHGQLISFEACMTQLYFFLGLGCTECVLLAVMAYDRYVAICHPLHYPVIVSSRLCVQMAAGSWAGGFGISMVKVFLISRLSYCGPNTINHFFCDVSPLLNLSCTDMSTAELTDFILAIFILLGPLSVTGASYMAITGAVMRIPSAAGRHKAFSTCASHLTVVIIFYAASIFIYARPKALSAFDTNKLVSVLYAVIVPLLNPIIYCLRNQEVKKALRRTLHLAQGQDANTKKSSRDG
Test: GloSensor cAMP assay in Hana3A cells expressing recombinant receptor
Assay type: cell-based

| EC50 [µM] | SMILES |
| --- | --- |
| ~10 | CCCCCCC(F)(F)C=O [compound 2, 2,2-difluorooctanal] |
| ~1.5 | CCCCCCCC=O [compound 1, octanal] |
